The values that follow come from US10532088B2, “Adoptive cellular therapy using an agonist of retinoic acid receptor-related orphan receptor gamma and related therapeutic methods” (Lycera Corporation, priority 2014, dated 2020).

In general, EC50 refers to the concentration at which the effect is half-maximal.

For one experiment, the target named is T1, Gal4-RORγ-LBD (Homo sapiens, UniProt P51449).
T1 construct: expressed in transfected cells
T1 sequence (P51449 269-508 limits assumed): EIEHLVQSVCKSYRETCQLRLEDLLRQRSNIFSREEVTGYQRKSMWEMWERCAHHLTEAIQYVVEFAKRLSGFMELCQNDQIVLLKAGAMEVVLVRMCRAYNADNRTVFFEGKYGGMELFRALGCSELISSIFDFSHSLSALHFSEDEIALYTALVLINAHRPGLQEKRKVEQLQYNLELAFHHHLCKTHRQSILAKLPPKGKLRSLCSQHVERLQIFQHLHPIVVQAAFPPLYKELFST
The experiment can be described thus: Gal4-RORγ Luciferase Reporter Assay in HEK-293T Cells. The class given is cell-based. The procedure:
In the following protocol, HEK-293 cells were transfected with a construct comprising the Gal4 DNA binding domain fused to the ligand binding domain of RORγ (Gal4-RORγ-LBD) in a pcDNA3.1neo plasmid, and also with a reporter construct comprising pGL4.31 Gal4-luciferase (Promega). Control cells were prepared similarly using empty pcDNA3.1neo and pGL4.31 vectors.
Trans-IT reagent (Mirus, 60 μL) at room temperature was added drop wise to OptiMEM (Invitrogen, 1.5 ml). This reagent mixture was mixed by inversion then incubated for 5 to 30 minutes at room temperature. It then was added to a solution of both expression vectors (5 μg each), mixed, and incubated at room temperature for about 20 minutes. HEK-293 cells were harvested from incubation flasks by removing the media, treating with TrypLE Express (Invitrogen), and incubating until the cells detached from the bottom of the flask (approximately 2-5 minutes). […]
The cells were harvested as described above, counted, and centrifuged to obtain the desired number of cells, then re-suspended in complete growth media at 0.75×10^6 cells/mL. […] The luciferase intensity was read on an Envision plate reader (Perkin Elmer). […] The Max Response is the upper plateau in the signal as determined by line-fit using a 4-parameter logistic model in PRISM (GraphPad).
Background: In a reporter assay the amount or activity of a reporter protein is the signal.

The subject of another experiment is EG7 tumors. In words: Adoptive transfer of Tc17 cells treated ex vivo with RORγ agonist to mice bearing EG7 tumors. The class given is in vivo. To be noted: Tc17 cells exposed ex vivo to compound at 10 μM; FIG. 1 Part A.
Another experiment addresses T2, RORγ-LBD (Homo sapiens, UniProt P51449).
T2 construct: HIS-tagged RORγ-LBD protein was expressed in SF9 cells using a baculovirus expression system; made in house; host or cells: SF9 insect cells, baculovirus; lysate used
T2 sequence (P51449 269-508 limits assumed): T1 sequence (P51449 269-508 limits assumed)
In words: RORγ-Ligand Binding Domain (LBD) TR-FRET Assay. The class given is biochemical. As to the method: HIS-tagged RORγ-LBD protein was expressed in SF9 cells using a baculovirus expression system. The lysate was diluted in assay buffer (50 mM Tris pH 7.0, 50 mM KCl, 1 mM EDTA, 0.1 mM DTT, 0.01% BSA) to obtain RORγ-LBD final concentration of ˜3 nM in a 384-well assay plate (need to titrate for each batch of protein).
A stock of biotinylated-LXXLL peptide from coactivator SRC1 (Biotin-[…]) was prepared in assay buffer and added to each well (200 nM final concentration). […] RORγ antagonist ursolic acid was also included at a final concentration of 2 μM. Compounds were diluted in DMSO and further diluted in assay buffer with a final DMSO concentration at 1%.
(TR-FRET usually uses a lanthanide donor and a delayed reading to cut background.)

Description for EG7 tumors: EG7 cells (EL4 cells with OVA expression) were grown in RPMI 1640 medium (Invitrogen)/10% heat-inactivated FBS (Hyclone), penicillin-streptomycin, and 50 mM β-mercaptoethanol (Invitrogen); harvested; washed with phosphate-buffered saline (PBS); and then implanted at 1×10^6 cells/mouse in PBS into the flank of mice subcutaneously. Implanted tumor cells grow into visible tumor in about one week. Mice are provided food and water ab libitum throughout the duration of the experiment.
Three to five days after tumor cell transplantation, Tc17 differentiation culture is set up. […]
When a tumor becomes visible, tumor volume is assessed by caliper measurement of the length and width and tumor volume is calculated (0.5×(length×(width)^2). When the tumor becomes visible in most mice (typically 7-10 days after implantation), mice are randomized by tumor volume (tumor volume is <500 mm^3) and divided into three groups. Differentiated Tc17 cells (with or without RORγ agonist) are counted, washed with phosphate buffered saline (PBS), and then the cells are injected into tumor-bearing mice at 5×10^6 cells/mouse intraperitoneally or intravenously using a PBS carrier to deliver the cells. […]
After T cell transfer, tumor volume was assessed every 2 to 3 days. In studies where survival is assessed, mice that are alive and have tumor volume smaller than 3000 mm^3 are considered survivors.

Regarding `C[C@H]1CN(S(=O)(=O)c2cccc(C(F)(F)F)c2)c2cc(COc3c(F)cccc3Cl)ccc2O1` [Compound 1], the half-maximal effective concentration (EC50) was 500 to 5000 nM at Gal4-RORγ-LBD (HEK-293 cells, 2 μM ursolic acid) and less than 500 nM on RORγ-LBD (in presence of 2 μM RORγ antagonist ursolic acid). The “Gal4-RORγ Assay Average Max Response” value on Gal4-RORγ-LBD (upper plateau, luciferase signal in absence of ursolic acid or test compound defined at 100) is given as “** (a value in the range of greater than 90 to 150)”. Also, in the experiment with EG7 tumors, the “change in tumor volume over time, p vs. DMSO treated Tc17 cells” value is recorded as less than 0.004. Further, at RORγ-LBD (upper plateau, signal in absence of ursolic acid or test compound set as 100), the “TR-FRET Assay Average Max Response” value is reported as “**** (a value greater than 200)”.
